From ChEMBL document CHEMBL1122628, “Nonsteroidal antiinflammatory agents. 14. Synthesis and pharmacological profile of 6-chloro-5-(cyclopentylmethyl)indan-1-carboxylic acid” (J Med Chem, 1984)

Legend:
Rattus norvegicus [1] = species: Rattus norvegicus; assay: Gastrointestinal tolerability was evaluated in rats and amount blood loss was reported.; type: functional
Rattus norvegicus [2] = species: Rattus norvegicus; assay: Gastrointestinal tolerability was evaluated under chronic conditions, in rats. The ulcerogenic dose from a 4-week toxicity study, was reported.; type: functional
Rattus norvegicus [3] = species: Rattus norvegicus; assay: Gastrointestinal tolerability was evaluated under chronic conditions, in rats. The ulcerogenic dose was reported.; type: functional
Rattus norvegicus [4] = assay: Antiinflammatory activity was evaluated in an adjuvant arthritis (subchronic inflammation) test, after administering compound orally in rats.; type: functional; conditions: po
Rattus norvegicus [5] = assay: Antiinflammatory activity was evaluated in an carrageenan edema (acute inflammation) test, after administering compound orally in rats.; type: functional; conditions: po
Rattus norvegicus [6] = species: Rattus norvegicus; assay: Gastrointestinal tolerability was evaluated under acute conditions, in rats. The ulcerogenic dose was reported.; type: functional
Rattus norvegicus [7] = assay: Antiinflammatory activity was evaluated in an adjuvant arthritis (subchronic inflammation) test after administering compound orally in rats; type: functional; conditions: po
Rattus norvegicus [8] = species: Rattus norvegicus; assay: Gastrointestinal tolerability was evaluated in rats and compound dose that causes lethality was reported; type: toxicity, organism-based; conditions: in vivo
Rattus norvegicus [9] = species: Rattus norvegicus; assay: Gastrointestinal tolerability was evaluated under chronic conditions, in rats. The ulcerogenic dose was reported; type: functional
Rattus norvegicus [10] = assay: Antiinflammatory activity was evaluated in an carrageenan edema (acute inflammation) test, after administering compound orally in rats; 15-30; type: functional; conditions: po
Rattus norvegicus [11] = species: Rattus norvegicus; assay: Gastrointestinal tolerability was evaluated in rats and amount blood loss was reported; type: functional
Rattus norvegicus [12] = species: Rattus norvegicus; assay: Gastrointestinal tolerability was evaluated under acute conditions, in rats. The ulcerogenic dose was reported; type: functional
Rattus norvegicus [13] = assay: Antiinflammatory activity was evaluated in an carrageenan edema (acute inflammation) test, after administering compound orally in rats; type: functional; conditions: po
Rattus norvegicus [14] = assay: Antiinflammatory activity was evaluated in an adjuvant arthritis (subchronic inflammation) test after administering compound orally in rats.; type: functional; conditions: po
Rattus norvegicus [15] = species: Rattus norvegicus; assay: Gastrointestinal tolerability was evaluated under chronic conditions, in rats. The ulcerogenic dose was reported; 30-100; type: functional
Rattus norvegicus [16] = assay: Antiinflammatory activity was evaluated in an carrageenan edema (acute inflammation) test, after administering compound orally in rats; 50-100; type: functional; conditions: po
Rattus norvegicus [17] = species: Rattus norvegicus; assay: Gastrointestinal tolerability was evaluated in rats and compound dose that causes lethality was reported.; type: toxicity, organism-based; conditions: in vivo

Compound | Blood loss (Rattus norvegicus [1]) [mg/kg] | ED40 (Rattus norvegicus [4]) [mg/kg] | ED50 (Rattus norvegicus [5]) [mg/kg] | UD (Rattus norvegicus [6]) [mg/kg] | Blood loss (Rattus norvegicus [11]) [mg/kg] | other results
O=C(O)C1CCc2cc(CC3CCCC3)c(Cl)cc21 (configuration not stated) | >100 | 30 | 30 | >400 |  | UD (Rattus norvegicus [2]): >400 mg/kg; UD (Rattus norvegicus [3]): >100 mg/kg
CC(C(=O)O)c1ccc2oc(-c3ccc(Cl)cc3)nc2c1 (configuration not stated) [BENOXAPROFEN] |  |  |  |  | <50 | ED40 (Rattus norvegicus [7]): 10 mg/kg; Lethality (Rattus norvegicus [8]): < 50 mg/kg; UD (Rattus norvegicus [9]): <30 mg/kg; ED50 (Rattus norvegicus [10]): 15 mg/kg; UD (Rattus norvegicus [12]): >200 mg/kg
O=C(O)C1CCc2cc(C3CCCCC3)c(Cl)cc21 (configuration not stated) [CLIDANAC] |  | 4 | 4 | <3 |  | 
O=C(O)Cc1ccccc1Nc1c(Cl)cccc1Cl [DICLOFENAC] |  |  |  | 20 | 20 | UD (Rattus norvegicus [9]): 20 mg/kg; ED50 (Rattus norvegicus [13]): 2 mg/kg; ED40 (Rattus norvegicus [14]): 2 mg/kg
CC(C)Cc1ccc(C(C)C(=O)O)cc1 (configuration not stated) [IBUPROFEN] |  |  |  |  | 200 | ED40 (Rattus norvegicus [7]): > 150 mg/kg; Lethality (Rattus norvegicus [8]): 400 mg/kg; UD (Rattus norvegicus [12]): 30 mg/kg; UD (Rattus norvegicus [15]): 30 mg/kg; ED50 (Rattus norvegicus [16]): 50 mg/kg
COc1ccc2c(c1)c(CC(=O)O)c(C)n2C(=O)c1ccc(Cl)cc1 [INDOMETHACIN] | 4 | 2 | 4 | 4 |  | Lethality (Rattus norvegicus [17]): 8 mg/kg; UD (Rattus norvegicus [3]): 4 mg/kg
COc1ccc2cc([C@H](C)C(=O)O)ccc2c1 [NAPROXEN] | >30 | 10 | 15 | 5 |  | Lethality (Rattus norvegicus [17]): > 30 mg/kg
